Measurements as given in PMC6254361, “The properties of Msh2–Msh6 ATP binding mutants suggest a signal amplification mechanism in DNA mismatch repair” (The Journal of Biological Chemistry, 2018).

Molecular target: T1, Msh2–Msh6 (Saccharomyces cerevisiae, UniProt P25847+Q03834)
T1 sequence (P25847 1-964): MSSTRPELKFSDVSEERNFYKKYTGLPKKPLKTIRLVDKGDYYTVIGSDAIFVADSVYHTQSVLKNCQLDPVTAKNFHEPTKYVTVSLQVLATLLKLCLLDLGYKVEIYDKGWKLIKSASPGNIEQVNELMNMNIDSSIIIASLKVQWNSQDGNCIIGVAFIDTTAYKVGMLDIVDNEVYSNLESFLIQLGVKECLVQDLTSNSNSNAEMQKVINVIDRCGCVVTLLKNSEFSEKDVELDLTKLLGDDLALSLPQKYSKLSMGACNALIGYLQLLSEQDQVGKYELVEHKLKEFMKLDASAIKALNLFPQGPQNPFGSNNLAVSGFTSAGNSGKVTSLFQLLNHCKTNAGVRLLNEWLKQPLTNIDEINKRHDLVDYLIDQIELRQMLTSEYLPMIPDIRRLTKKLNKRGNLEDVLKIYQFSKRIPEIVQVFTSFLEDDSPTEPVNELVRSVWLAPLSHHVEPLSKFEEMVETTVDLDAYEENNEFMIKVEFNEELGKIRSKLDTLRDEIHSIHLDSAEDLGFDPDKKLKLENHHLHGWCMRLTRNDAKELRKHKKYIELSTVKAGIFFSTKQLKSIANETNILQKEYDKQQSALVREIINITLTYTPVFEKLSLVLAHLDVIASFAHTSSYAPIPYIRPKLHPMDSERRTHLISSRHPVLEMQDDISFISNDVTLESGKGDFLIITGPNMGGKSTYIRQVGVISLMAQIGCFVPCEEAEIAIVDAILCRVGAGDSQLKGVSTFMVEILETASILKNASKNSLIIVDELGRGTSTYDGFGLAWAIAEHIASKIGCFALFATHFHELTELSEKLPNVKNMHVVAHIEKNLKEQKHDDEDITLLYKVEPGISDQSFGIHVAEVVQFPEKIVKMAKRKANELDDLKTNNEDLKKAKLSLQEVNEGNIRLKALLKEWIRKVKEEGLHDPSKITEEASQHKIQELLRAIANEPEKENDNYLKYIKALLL
T1 sequence (Q03834 1-1242): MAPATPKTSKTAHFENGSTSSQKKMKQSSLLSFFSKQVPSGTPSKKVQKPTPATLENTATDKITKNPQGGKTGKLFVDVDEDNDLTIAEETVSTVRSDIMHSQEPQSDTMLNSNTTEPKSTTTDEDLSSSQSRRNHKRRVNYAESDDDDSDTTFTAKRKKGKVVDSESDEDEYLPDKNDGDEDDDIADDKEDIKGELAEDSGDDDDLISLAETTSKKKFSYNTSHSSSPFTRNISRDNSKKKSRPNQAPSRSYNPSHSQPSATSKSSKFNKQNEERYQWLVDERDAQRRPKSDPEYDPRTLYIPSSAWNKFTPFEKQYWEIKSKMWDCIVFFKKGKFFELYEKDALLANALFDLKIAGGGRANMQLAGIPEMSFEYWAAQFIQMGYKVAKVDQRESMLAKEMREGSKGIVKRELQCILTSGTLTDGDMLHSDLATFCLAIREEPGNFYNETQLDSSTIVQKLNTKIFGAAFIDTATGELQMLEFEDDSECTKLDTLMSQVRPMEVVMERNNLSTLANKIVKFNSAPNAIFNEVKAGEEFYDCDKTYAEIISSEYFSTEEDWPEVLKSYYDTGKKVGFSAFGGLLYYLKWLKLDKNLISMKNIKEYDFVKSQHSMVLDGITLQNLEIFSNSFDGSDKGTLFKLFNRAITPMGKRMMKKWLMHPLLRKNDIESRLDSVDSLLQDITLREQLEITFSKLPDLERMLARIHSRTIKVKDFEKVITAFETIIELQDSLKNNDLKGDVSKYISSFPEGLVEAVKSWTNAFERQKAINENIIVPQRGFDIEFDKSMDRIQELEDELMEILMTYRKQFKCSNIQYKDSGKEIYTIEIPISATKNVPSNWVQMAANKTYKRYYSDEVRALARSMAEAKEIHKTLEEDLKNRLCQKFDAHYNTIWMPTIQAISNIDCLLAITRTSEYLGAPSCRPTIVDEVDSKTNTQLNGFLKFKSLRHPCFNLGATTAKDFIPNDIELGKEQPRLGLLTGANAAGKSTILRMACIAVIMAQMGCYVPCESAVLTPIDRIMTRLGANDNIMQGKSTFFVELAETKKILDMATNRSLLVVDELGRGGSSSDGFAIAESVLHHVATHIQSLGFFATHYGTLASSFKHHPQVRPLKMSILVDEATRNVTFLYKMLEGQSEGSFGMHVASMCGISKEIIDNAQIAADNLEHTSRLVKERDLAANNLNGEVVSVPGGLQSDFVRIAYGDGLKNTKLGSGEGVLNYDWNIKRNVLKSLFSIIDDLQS
Assay: UV cross-linking of [γ-32P]ATP, SDS-PAGE, phosphorimaging
Format: binding
Details: labelled compound; reference complex; no Mg2+, EDTA, pH 8, on ice; Msh2 site at 60 μM ATP, Msh6 site at 1 μM ATP

## Nc1ncnc2c1ncn2[C@@H]1O[C@H](COP(=O)(O)OP(=O)(O)OP(=O)(O)O)[C@@H](O)[C@H]1O [ATP]
  UV cross-linking of [γ-32P]ATP, SDS-PAGE, phosphorimaging: ATP binding at these concentrations was compared with WT Msh2–Msh6
